Experimental findings from patent US10519177B2, “Heterocyclic compounds and uses thereof” (Plexxikon Inc., priority 2013, dated 2019) are described below.

The subject of test [1] is bromodomain. In words: at least one of the bromodomain cell assays of Example 57. The test is classed as cell-based. To be noted: at least one of the bromodomain cell assays described in Example 57; read-out: IC50 in at least one of the bromodomain cell assays.
Test [2] concerns the target BRD4-BD12 (1-477) (Homo sapiens (Human), UniProt O60885). In words: Alphascreen binding assay BRD4-BD12. The conditions noted are these: BRD4(1 2) H4; read-out: Biochemical activity (IC50 μM) BRD4(1 2) H4. The method in brief:
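In this competition format, compounds displace a biotinylated tetra-acetyl H4 peptide from E. coli-expressed human BRD4 bromodomain constructs captured on nickel chelate beads. The reaction runs at pH 7.5 with 2 mM DTT and detergent for 1 h at room temperature before a 30 min bead step.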
For orientation: In Alpha technology, singlet oxygen from a donor bead excites a nearby acceptor bead.

Test [3] relates to MV-4-11 cells. In words: Oncology cell growth assay MV-4-11 (CellTiter Glo). The test is classed as cell-based. The conditions noted are these: Homo sapiens, MV4-11, 72 h; MV-4-11, 3d growth; read-out: Cell activity (IC50 μM) MV-4-11 3d-Growth. The gist of the method: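 Growth read by CellTiter Glo luminescence after 72 h compound treatment of MLL-AF4-bearing MV-4-11 cells (3000/well). Titration: 8 points, 1:3 steps, maximum 10 μM, 0.2% DMSO final. Data normalized to DMSO wells, four-parameter fit gives pIC50.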
(In general: ATP-based viability assays read luminescence as a measure of living cells.)

The term IC50 denotes the midpoint of a concentration-inhibition curve. `Cc1noc(C)c1-c1cnc2c(-c3ccc(F)c(C(=O)O)c3)cn(CC3(F)CCCCC3)c2c1` [P-0467, 5-[6-(3,5-dimethylisoxazol-4-yl)-1-[(1-fluorocyclohexyl)methyl]pyrrolo[3,2-b]pyridin-3-yl]-2-fluoro-benzoic acid]: the IC50 in test [1] was less than 10000 nM; in test [2], less than 1 µM; in test [3] it was less than 1 µM.
In the case of `Cc1noc(C)c1-c1cnc2c(-c3ccc(C(=O)O)cc3F)cn(CC3(F)CCCCC3)c2c1` [P-0468, 4-[6-(3,5-dimethylisoxazol-4-yl)-1-[(1-fluorocyclohexyl)methyl]pyrrolo[3,2-b]pyridin-3-yl]-3-fluoro-benzoic acid], the IC50 in test [1] was less than 10000 nM; in test [2] it was less than 1 µM; in test [3], less than 1 µM.
As to `Cc1noc(C)c1-c1cnc2c(-c3ccc(C(=O)O)c(F)c3)cn(CC3(F)CCCCC3)c2c1` [P-0469, 4-[6-(3,5-dimethylisoxazol-4-yl)-1-[(1-fluorocyclohexyl)methyl]pyrrolo[3,2-b]pyridin-3-yl]-2-fluoro-benzoic acid], the concentration for half-maximal inhibition (IC50) was less than 10000 nM in test [1], less than 1 µM in test [2] and less than 1 µM in test [3].
For `COc1ccc(-c2cn(CC3(F)CCCCC3)c3cc(-c4c(C)noc4C)cnc23)cn1` [P-0470, 4-[1-[(1-fluorocyclohexyl)methyl]-3-(6-methoxy-3-pyridyl)pyrrolo[3,2-b]pyridin-6-yl]-3,5-dimethyl-isoxazole], the 50% inhibitory concentration (IC50) in test [1] was less than 10000 nM; in test [2], less than 1 µM; in test [3], less than 1 µM.
For `Cc1noc(C)c1-c1cnc2c(-c3ccc(=O)n(C)c3)cn(CC3(F)CCCCC3)c2c1` [P-0471, 5-[6-(3,5-dimethylisoxazol-4-yl)-1-[(1-fluorocyclohexyl)methyl]pyrrolo[3,2-b]pyridin-3-yl]-1-methyl-pyridin-2-one], the IC50 was less than 10000 nM in test [1], less than 1 µM in test [2] and less than 1 µM in test [3].
Consider `Cc1noc(C)c1-c1cnc2c(-c3cnc(N)cn3)cn(CC3(F)CCCCC3)c2c1` [P-0472, 5-[6-(3,5-dimethylisoxazol-4-yl)-1-[(1-fluorocyclohexyl)methyl]pyrrolo[3,2-b]pyridin-3-yl]pyrazin-2-amine], for which the half-inhibitory concentration (IC50) in test [1] was less than 10000 nM; in test [2] it was less than 1 µM; in test [3], less than 1 µM.
Consider `Cc1noc(C)c1-c1cnc2c(-c3cnc(N)nc3)cn(CC3(F)CCCCC3)c2c1` [P-0473, 5-[6-(3,5-dimethylisoxazol-4-yl)-1-[(1-fluorocyclohexyl)methyl]pyrrolo[3,2-b]pyridin-3-yl]pyrimidin-2-amine], for which the figures for the 50% inhibitory concentration (IC50) in test [1], in test [2] and in test [3] were less than 10000 nM, less than 1 µM and less than 1 µM, respectively.
For the compound `Cc1noc(C)c1-c1cnc2c(-c3cnc(C4CC4)nc3)cn(CC3(F)CCCCC3)c2c1` [P-0474, 4-[3-(2-cyclopropylpyrimidin-5-yl)-1-[(1-fluorocyclohexyl)methyl]pyrrolo[3,2-b]pyridin-6-yl]-3,5-dimethyl-isoxazole], the values for the IC50 in test [1], in test [2] and in test [3] were less than 10000 nM, less than 1 µM and less than 1 µM, respectively.
On to `Cc1noc(C)c1-c1cnc2c(-c3cccc(S(N)(=O)=O)c3)cn(CC3(F)CCCCC3)c2c1` [P-0475, 3-[6-(3,5-dimethylisoxazol-4-yl)-1-[(1-fluorocyclohexyl)methyl]pyrrolo[3,2-b]pyridin-3-yl]benzenesulfonamide], for which the IC50 was less than 10000 nM in test [1], less than 1 µM in test [2] and less than 1 µM in test [3].
In the case of `Cc1noc(C)c1-c1cnc2c(-c3ccc(C(=O)O)c(F)c3F)cn(CC3(F)CCCCC3)c2c1` [P-0476, 4-[6-(3,5-dimethylisoxazol-4-yl)-1-[(1-fluorocyclohexyl)methyl]pyrrolo[3,2-b]pyridin-3-yl]-2,3-difluoro-benzoic acid], the results for the concentration for half-maximal inhibition (IC50) in test [1], in test [2] and in test [3] were less than 10000 nM, less than 1 µM and less than 1 µM, respectively.
Regarding `Cc1noc(C)c1-c1cnc2c(-c3csc(C(=O)O)c3)cn(CC3(F)CCCCC3)c2c1` [P-0477, 4-[6-(3,5-dimethylisoxazol-4-yl)-1-[(1-fluorocyclohexyl)methyl]pyrrolo[3,2-b]pyridin-3-yl]thiophene-2-carboxylic acid], the figures for the IC50 in test [1], in test [2] and in test [3] were less than 10000 nM, less than 1 µM and 1 to 10 µM, respectively.
Consider `Cc1noc(C)c1-c1cnc2c(-c3ccc(C(=O)O)s3)cn(CC3(F)CCCCC3)c2c1` [P-0478, 5-[6-(3,5-dimethylisoxazol-4-yl)-1-[(1-fluorocyclohexyl)methyl]pyrrolo[3,2-b]pyridin-3-yl]thiophene-2-carboxylic acid], for which the values for the concentration for half-maximal inhibition (IC50) in test [1], in test [2] and in test [3] were less than 10000 nM, less than 1 µM and less than 1 µM, respectively.
With `Cc1nnn(C)c1-c1cnc2c(-c3ccc(S(N)(=O)=O)cc3)cn(CC3(F)CCCCC3)c2c1` [P-0479, 4-[6-(3,5-dimethyltriazol-4-yl)-1-[(1-fluorocyclohexyl)methyl]pyrrolo[3,2-b]pyridin-3-yl]benzenesulfonamide], the figures for the IC50 in test [1], in test [2] and in test [3] were less than 10000 nM, less than 1 µM and less than 1 µM, respectively.
For `Cn1cc(-c2cnc3c(-c4ccc(C(=O)O)cc4)cn(CC4CCC(F)(F)CC4)c3c2)ccc1=O` [P-0480, 4-[1-[(4,4-difluorocyclohexyl)methyl]-6-(1-methyl-6-oxo-3-pyridyl)pyrrolo[3,2-b]pyridin-3-yl]benzoic acid], the results for the half-maximal inhibitory concentration (IC50) in test [1], in test [2] and in test [3] were less than 10000 nM, less than 1 µM and 1 to 10 µM, respectively.
Take `Cc1cc(-c2cnc3c(-c4cnn(CC(F)(F)F)c4)cn(CC4CCC(F)(F)CC4)c3c2)c[nH]c1=O` [P-0481, 5-[1-[(4,4-difluorocyclohexyl)methyl]-3-[1-(2,2,2-trifluoroethyl)pyrazol-4-yl]pyrrolo[3,2-b]pyridin-6-yl]-3-methyl-1H-pyridin-2-one]: the concentration for half-maximal inhibition (IC50) was less than 10000 nM in test [1], less than 1 µM in test [2] and less than 1 µM in test [3].
As to `Cc1noc(C)c1-c1cnc2c(-c3cnn(CC(=O)O)c3)cn(CC3CCC(F)(F)CC3)c2c1` [P-0482, 3-[4-[1-[(4,4-difluorocyclohexyl)methyl]-6-(3,5-dimethylisoxazol-4-yl)pyrrolo[3,2-b]pyridin-3-yl]pyrazol-1-yl]acetic acid], the 50% inhibitory concentration (IC50) in test [1] was less than 10000 nM; in test [2], less than 1 µM; in test [3] it was 10 to 200 µM.
`Cc1cc(-c2cn(CC3CCC(F)(F)CC3)c3cc(-c4c(C)noc4C)cnc23)ccc1C(=O)O` [P-0483, 4-[1-[(4,4-difluorocyclohexyl)methyl]-6-(3,5-dimethylisoxazol-4-yl)pyrrolo[3,2-b]pyridin-3-yl]-2-methyl-benzoic acid]: the values for the IC50 in test [1], in test [2] and in test [3] were less than 10000 nM, less than 1 µM and less than 1 µM, respectively.
For `Cc1noc(C)c1-c1cnc2c(-c3csc(C(=O)O)c3)cn(CC3CCC(F)(F)CC3)c2c1` [P-0484, 4-[1-[(4,4-difluorocyclohexyl)methyl]-6-(3,5-dimethylisoxazol-4-yl)pyrrolo[3,2-b]pyridin-3-yl]thiophene-2-carboxylic acid], the figures for the IC50 in test [1], in test [2] and in test [3] were less than 10000 nM, less than 1 µM and less than 1 µM, respectively.
Turning to `Cc1noc(C)c1-c1cnc2c(-c3ccc(C(=O)O)s3)cn(CC3CCC(F)(F)CC3)c2c1` [P-0485, 5-[1-[(4,4-difluorocyclohexyl)methyl]-6-(3,5-dimethylisoxazol-4-yl)pyrrolo[3,2-b]pyridin-3-yl]thiophene-2-carboxylic acid], the IC50 was less than 10000 nM in test [1], less than 1 µM in test [2] and less than 1 µM in test [3].
